Assay results: ChEMBL document CHEMBL4390686, “Design, Synthesis, and Pharmacokinetic Evaluation of Phosphate and Amino Acid Ester Prodrugs for Improving the Oral Bioavailability of the HIV-1 Protease Inhibitor Atazanavir” (J Med Chem, 2019)
In brackets after ≈: the same amount, converted by molar mass.

What was measured:
physchem [1] = settings: acetate buffer, pH 4
Description: Aqueous solubility of the compound in pH 4 acetate buffer by RP-UPLC analysis

[2] = Total AUC in cannulated Sprague-Dawley rat assessed as atazanavir level at 6 mg/kg equiv of atazanavir administered orally by UPLC/MS/MS analysis relative to atazanavir alone; assay type: ADME, organism-based; settings: in vivo, po
[3] = Ratio of test compound to atazanavir aqueous solubility in pH 4 acetate buffer by RP-UPLC analysis; assay type: physicochemical
[4] = system: Human immunodeficiency virus 1
Description: Antiviral activity against HIV1 NL4-3 infected in human MT2 cells assessed as reduction in viral yield measured after 4 days by EnduRen live cell substrate based luciferase reporter gene assay

UGT1A1 [5] = target: T1, UGT1A1 (Homo sapiens, UniProt P22309); test: Ratio of test compound IC50 to atazanavir IC50 for recombinant human UGT1A1; assay type: ADME; settings: read-out: Ratio IC50
T1 sequence (P22309 whole entry): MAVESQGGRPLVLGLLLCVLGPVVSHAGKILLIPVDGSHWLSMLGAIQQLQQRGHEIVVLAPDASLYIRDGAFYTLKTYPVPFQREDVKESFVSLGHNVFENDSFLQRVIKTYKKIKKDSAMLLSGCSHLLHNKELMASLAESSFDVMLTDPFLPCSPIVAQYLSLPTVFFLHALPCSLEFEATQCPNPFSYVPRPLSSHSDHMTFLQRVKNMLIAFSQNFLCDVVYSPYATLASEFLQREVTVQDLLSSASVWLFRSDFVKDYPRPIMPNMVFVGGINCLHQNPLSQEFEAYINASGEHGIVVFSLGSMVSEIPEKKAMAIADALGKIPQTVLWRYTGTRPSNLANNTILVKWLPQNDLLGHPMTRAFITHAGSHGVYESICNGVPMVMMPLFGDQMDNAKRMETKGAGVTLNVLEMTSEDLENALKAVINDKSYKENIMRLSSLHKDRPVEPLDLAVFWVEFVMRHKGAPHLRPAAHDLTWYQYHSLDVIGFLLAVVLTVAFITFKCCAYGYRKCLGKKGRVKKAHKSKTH

[6] = Aqueous solubility of the compound in FeSSIF by RP-HPLC analysis; assay type: physicochemical
physchem [7] = settings: phosphate buffer, pH 7.4
Description: Aqueous solubility of the compound in pH 7.4 phosphate buffer by RP-UPLC analysis

[8] = Prodrug conversion in rat hepatocytes assessed as pseudo first order rate constant for atazanavir formation at 1 uM in absence of esterase inhibitor PMSF/CYP450 inhibitor ABT; assay type: ADME, cell-based, Hepatocyte
[9] = Stability in simulated gastric fluid assessed as porcine pepsin-mediated compound hydrolysis at 1 mL measured up to 1 hr at pH 1.2 by HPLC analysis; assay type: ADME, Sus scrofa; settings: pig, isolated protein, pH 1.2, 1 h
[10] = Drug metabolism in cannulated Sprague-Dawley rat assessed as prodrug to atazanavir ratio at 30 mg/kg equiv of atazanavir administered orally by UPLC/MS/MS analysis; assay type: ADME, organism-based; settings: in vivo, po
[11] = Cmax in cannulated Sprague-Dawley rat assessed as atazanavir level at 30 mg/kg equiv of atazanavir administered orally by UPLC/MS/MS analysis; assay type: ADME, organism-based; parameters: dose 30 mg/kg, route oral; settings: in vivo, po
[12] = Half life in rat whole blood at 1 uM by UPLC-MS/MS analysis; assay type: ADME, tissue-based
[13] = Ratio of test compound to atazanavir aqueous solubility in pH 3 buffer by RP-UPLC analysis; assay type: physicochemical
[14] = Prodrug conversion in rat hepatocytes assessed as pseudo first order rate constant for atazanavir formation at 1 uM in presence of esterase inhibitor PMSF/CYP450 inhibitor ABT; assay type: ADME, cell-based, Hepatocyte
in vitro = settings: human, Caco-2
Description: Efflux ratio of apparent permeability across basolateral to apical side over apical to basolateral side in human Caco2 cells

[15] = Ratio of test compound to atazanavir aqueous solubility in pH 4 citrate buffer by RP-UPLC analysis; assay type: physicochemical
[16] = Aqueous solubility of the compound in pH 5 buffer by RP-UPLC analysis; assay type: physicochemical
[17] = Tmax in cannulated Sprague-Dawley rat assessed as atazanavir level at 30 mg/kg equiv of atazanavir administered orally by UPLC/MS/MS analysis; assay type: ADME, organism-based; settings: in vivo, po
physchem [18] = settings: 30% CH3CN/HCl buffer, pH 1
Description: Half life in pH 1 30%CH3CN/HCl buffer at 50 mM by RP-UPLC analysis

[19] = rat, in vivo, po, 3 mg/kg
[20] = Prodrug conversion in rat hepatocytes assessed as pseudo first order rate constant for atazanavir formation at 1 uM in presence of CYP450 inhibitor ABT; assay type: ADME, cell-based, Hepatocyte
[21] = Elimination half life in rat hepatocytes at 1 uM in presence of esterase inhibitor PMSF/CYP450 inhibitor ABT; assay type: ADME, cell-based, Hepatocyte; settings: read-out: beta t1/2
[22] = rat, in vivo, po, 3 mg/kg; remark: listed apart in the source
[23] = Cmin in cannulated Sprague-Dawley rat assessed as atazanavir level at 6 mg/kg equiv of atazanavir administered orally measured after 24 hrs by UPLC/MS/MS analysis; assay type: ADME, organism-based; settings: in vivo, po, BLD = below limit of detection
[24] = Prodrug conversion in rat hepatocytes assessed as pseudo first order rate constant for atazanavir formation at 1 uM in presence of esterase inhibitor PMSF; assay type: ADME, cell-based, Hepatocyte
[25] = AUClast in cannulated Sprague-Dawley rat assessed as atazanavir level at 30 mg/kg equiv of atazanavir administered orally by UPLC/MS/MS analysis; assay type: ADME, organism-based; parameters: dose 30 mg/kg, route oral, time 0 - last; settings: in vivo, po
physchem [26] = settings: HCl buffer, pH 1
Description: Aqueous solubility of the compound in pH 1 HCl buffer by RP-UPLC analysis

UGT1A1 [27] = target: T2, UGT1A1 (Rattus norvegicus, UniProt Q64550); test: Ratio of test compound IC50 to atazanavir IC50 for UGT1A1 in rat liver microsomes; assay type: ADME; settings: read-out: Ratio IC50
T2 sequence (Q64550 whole entry): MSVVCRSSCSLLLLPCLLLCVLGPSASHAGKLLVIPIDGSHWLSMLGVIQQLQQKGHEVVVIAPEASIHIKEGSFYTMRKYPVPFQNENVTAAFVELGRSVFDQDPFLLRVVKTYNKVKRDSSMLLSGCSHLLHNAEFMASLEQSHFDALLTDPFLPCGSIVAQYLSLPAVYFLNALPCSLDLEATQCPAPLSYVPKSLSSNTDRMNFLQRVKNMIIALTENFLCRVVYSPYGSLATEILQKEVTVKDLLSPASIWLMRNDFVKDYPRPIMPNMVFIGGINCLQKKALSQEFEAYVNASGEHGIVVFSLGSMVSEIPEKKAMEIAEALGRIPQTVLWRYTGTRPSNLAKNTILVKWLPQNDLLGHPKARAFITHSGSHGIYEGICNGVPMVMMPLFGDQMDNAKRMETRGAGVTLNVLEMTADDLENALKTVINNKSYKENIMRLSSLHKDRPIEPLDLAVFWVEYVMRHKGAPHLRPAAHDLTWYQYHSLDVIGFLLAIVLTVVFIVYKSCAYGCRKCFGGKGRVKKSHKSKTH

UGT1A1 [28] = target: T1, UGT1A1; test: Ratio of test compound IC50 to atazanavir IC50 for UGT1A1 in human liver microsomes; assay type: ADME; settings: read-out: Ratio IC50
[29] = Cmin in cannulated Sprague-Dawley rat assessed as atazanavir level at 30 mg/kg equiv of atazanavir administered orally measured after 24 hrs by UPLC/MS/MS analysis; assay type: ADME, organism-based; settings: in vivo, po, read-out: Cmin
[30] = AUClast in cannulated Sprague-Dawley rat assessed as atazanavir level at 6 mg/kg equiv of atazanavir administered orally by UPLC/MS/MS analysis; assay type: ADME, organism-based; parameters: dose 6 mg/kg, time 0 - last, route oral; settings: in vivo, po
Protease = Protease (Human immunodeficiency virus 1, UniProt Q9YQ12)
Protease, sequence (Q9YQ12 whole entry): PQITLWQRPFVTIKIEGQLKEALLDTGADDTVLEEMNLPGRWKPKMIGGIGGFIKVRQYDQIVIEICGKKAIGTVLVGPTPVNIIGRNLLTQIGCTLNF
Description: Inhibition of HIV1 protease activity

solubility (physchem [1]): 1100 to 4100 µg/mL (≈ 1290 to 4810 µM) | fold change (FC) [2]: 4.1 | Ratio [3]: 4100 | EC50 [4]: 0.9 to 1250 nM | solubility [6]: > 500 µg/mL | solubility (physchem [7]): 1 µg/mL (≈ 1.17 µM) | K [8]: 0.0164 min⁻¹ | Stability [9]: Stable | Ratio [10]: 0.3 | Cmax [11]: 4720 nM | half-life at 1 µM [12]: > 2 h | Ratio [13]: 114 | K [14]: 0.0014 min⁻¹ | efflux ratio (in vitro): > 8.7 | Ratio [15]: 1100 | solubility [16]: 1300 µg/mL (≈ 1530 µM) | Tmax [17]: 0.8 h | half-life at 50000 µM (physchem [18]): > 500 h | Cmax [19]: 456 nM | K [20]: 0.0042 min⁻¹ | half-life at 1 µM [21]: > 2 h | Tmax [22]: 0.5 h | Cmin [23]: Bld | K [24]: 0.0009 min⁻¹ | AUClast [25]: 19.67 µM·h | solubility (physchem [26]): > 1500 µg/mL | concentration [29]: 1 nM | AUClast [30]: 0.913 µM·h | IC50 (Protease): 4 to 1140 nM
SMILES: COC(=O)N[C@H](C(=O)N[C@@H](Cc1ccccc1)[C@H](CN(Cc1ccc(-c2ccccn2)cc1)NC(=O)[C@@H](NC(=O)OC)C(C)(C)C)OC(=O)[C@@H](N)Cc1ccccc1)C(C)(C)C
selectivity ratio (UGT1A1 [5]): 9.3 | selectivity ratio (UGT1A1 [27]): 5.7 | selectivity ratio (UGT1A1 [28]): 4.2
